Where a SMILES comes first, the peptide text is derived from it. Bridges are numbered along the chain shown (N, C = ends). [ ]: non-standard residue; d: D form. The star is where a group is joined. hPhe(3-Cl-4-CF3) = N[C@@H](CCc1ccc(C(F)(F)F)c(Cl)c1)C(=O)O; NPrPhe(4-CF3) = CCCN[C@@H](Cc1ccc(C(F)(F)F)cc1)C(=O)O; Morpholine(3S-CO) = O=C(O)[C@@H]1COCCN1; NMeGly(cPent) = CN[C@H](C(=O)O)C1CCCC1; NMeD = CN[C@@H](CC(=O)O)C(=O)O; NMeL = CN[C@@H](CC(C)C)C(=O)O; Morpholide = C1CN(*)CCO1; Ac5c = NC1(C(=O)O)CCCC1; Aze = O=C(O)[C@@H]1CCN1; Sar = CNCC(=O)O
What was measured:
[1] = target: GDP-bound KRAS wild-type protein (Homo sapiens, UniProt P01116); test: Binding to KRAS by surface plasmon resonance (SPR), dissociation constant KD
Sequence of GDP-bound KRAS wild-type protein (P01116 1-188 isoform P01116-2): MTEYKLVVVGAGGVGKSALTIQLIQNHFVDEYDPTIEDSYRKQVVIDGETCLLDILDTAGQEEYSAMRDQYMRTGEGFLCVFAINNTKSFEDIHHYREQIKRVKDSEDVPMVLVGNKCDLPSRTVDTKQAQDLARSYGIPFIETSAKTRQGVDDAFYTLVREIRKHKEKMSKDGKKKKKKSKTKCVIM
Summary of the method: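 Recombinant RAS proteins bearing a biotinylated Avi tag and loaded with GDP served as the captured ligand, recaptured fresh every cycle. Binding responses were referenced to an uncoated surface and a buffer-only blank cycle. Dissociation constants were obtained by 1:1 model fitting at 30°C.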

[2] = tested on: human lung cancer strain NCI-H441; type: cell-based
Summary of the method: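 Step one: dispense the test compound in serial DMSO dilutions. Step three: add the reagent and measure […].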

[3] = target: HRAS wild-type protein (Homo sapiens, UniProt P01112); test: Binding to HRAS by surface plasmon resonance (SPR), KD and KD ratio to KRAS
Sequence of HRAS wild-type protein (P01112 whole entry): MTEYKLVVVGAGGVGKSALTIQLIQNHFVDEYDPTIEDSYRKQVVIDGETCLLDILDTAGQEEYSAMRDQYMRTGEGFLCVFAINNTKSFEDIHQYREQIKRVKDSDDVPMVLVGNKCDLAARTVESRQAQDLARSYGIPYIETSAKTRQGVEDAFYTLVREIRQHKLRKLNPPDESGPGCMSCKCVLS
Summary of the method: (§1)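 Captured GDP-RAS (~100–300 RU) was exposed to increasing compound concentrations, 75 s per step, in running buffer with 10 µM GDP, 10 mM MgCl2 and 4% DMSO at pH 7.4.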

[4] = target: GDP-bound NRAS wild-type protein (Homo sapiens, UniProt P01111); test: Binding to NRAS by surface plasmon resonance (SPR), KD and KD ratio to KRAS
Sequence of GDP-bound NRAS wild-type protein (P01111 whole entry): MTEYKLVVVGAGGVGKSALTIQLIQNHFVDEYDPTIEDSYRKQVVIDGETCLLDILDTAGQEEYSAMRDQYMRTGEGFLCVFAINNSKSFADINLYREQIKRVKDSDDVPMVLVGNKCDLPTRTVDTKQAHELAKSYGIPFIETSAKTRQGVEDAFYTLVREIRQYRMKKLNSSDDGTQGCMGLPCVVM
Summary of the method: as §1

[5] = ratio of KD for HRAS wild-type protein to KD for KRAS
[6] = ratio of KD for GDP-bound NRAS wild-type protein to KD for KRAS
[7] = Single Cycle Kinetics, 1:1 binding model
[8] = ratio of the KD value with respect to HRAS wild-type protein to the KD value with respect to KRAS
[9] = ratio of the KD value with respect to GDP-bound NRAS wild-type protein to the KD value with respect to KRAS

| Kd ([1]; 1:1 binding model) [nM] | IC50 [2] [nM] | Kd [1, 7] [nM] | Kd ([1]; Single Cycle Kinetics) [nM] | SMILES | HRAS /KRAS [3, 5] | NRAS /KRAS [4, 6] | HRAS /KRAS [3, 8] | NRAS /KRAS [4, 9] | HRAS /KRAS ([3]; ratio of KD value for HRAS wild-type protein to KD value for KRAS (SPR)) | NRAS /KRAS ([4]; ratio of KD value for GDP-bound NRAS wild-type protein to KD value for KRAS (SPR)) |
| --- | --- | --- | --- | --- | --- | --- | --- | --- | --- | --- |
| 0.11 | 5.9 |  |  | C#CC[C@H]1C(=O)N[C@@H]([C@@H](C)CC)C(=O)N(C)CC(=O)N(C)[C@H]2C/C=C\CCN(C2=O)[C@@H](Cc2ccc(C)cc2)C(=O)N(C)CC(=O)N[C@@H](CCc2cc(F)c(C(F)(F)F)c(F)c2)C(=O)N2CC3(CC3)C[C@H]2C(=O)NC2(CC(C)(C)C2)C(=O)N(C)[C@@H](C2CCCC2)C(=O)N(C)[C@H](C(=O)N(C)C)CC(=O)N1C [PP2978] | A (a compound having 10 or more and less than 20 is denoted as A) | A (a compound having 10 or more and less than 20 is denoted as A) |  |  |  |  |
|  | 15.1 | 0.12 |  | CC[C@H](C)[C@@H]1NC(=O)[C@H](CC2CC2)N(C)C(=O)C[C@@H](C(=O)N(C)CC)N(C)C(=O)[C@H](C2CCCC2)N(C)C(=O)C2(CC(C)(C)C2)NC(=O)[C@@H]2C[C@H](C)CN2C(=O)[C@H](CCc2ccc(C(F)(F)F)c(OC)c2)NC(=O)CN(C)C(=O)[C@H](Cc2ccc(C)cc2)N2CC/C=C\C[C@@H](C2=O)N(C)C(=O)CN(C)C1=O [PP1899] |  |  | B (a compound having 3 or more and less than 10 is denoted as B) | A (a compound having 10 or more and less than 20 is denoted as A) |  |  |
|  | 16 | 0.12 |  | CCCN(C)C(=O)[C@@H]1CC(=O)N(C)[C@@H](C2CC2)C(=O)N[C@@H]([C@@H](C)CC)C(=O)N(C)CC(=O)N(C)[C@H]2C/C=C\CCN(C2=O)[C@@H](Cc2ccc(C(F)(F)F)cc2)C(=O)N(C)CC(=O)N[C@@H](CCc2cc(F)c(C(F)(F)F)c(F)c2)C(=O)N2C[C@H](OCC)C[C@H]2C(=O)NC2(CC(C)(C)C2)C(=O)N(C)[C@@H](C2CCCC2)C(=O)N1C [PP2037] |  |  | A (a compound having 10 or more and less than 20 is denoted as A) | A (a compound having 10 or more and less than 20 is denoted as A) |  |  |
|  | 112 |  | 0.36 | CC[C@H](C)[C@@H]1NC(=O)[C@H](CC(C)C)N(C)C(=O)C[C@@H](C(=O)N2CCOCC2)N(C)C(=O)[C@H](C2CCCC2)N(C)C(=O)C2(CCC2)NC(=O)[C@]2(C)CCCN2C(=O)[C@H](CCc2cc(F)c(C(F)(F)F)c(F)c2)NC(=O)CN(C)C(=O)[C@H](Cc2ccc(C(F)(F)F)cc2)N2CCCCC[C@@H](C2=O)N(C)C(=O)CN(C)C1=O [PP0817] | B (a compound having 3 or more and less than 10 is denoted as B) | A (a compound having 10 or more and less than 20 is denoted as A) |  |  |  |  |
|  | 10.1 | 0.082 |  | CCCN(C)C(=O)[C@@H]1CC(=O)N(C)[C@@H](CC(F)F)C(=O)N[C@@H]([C@@H](C)CC)C(=O)N(C)CC(=O)N(C)[C@H]2C/C=C\CCN(C2=O)[C@@H](Cc2ccc(C(F)(F)F)cc2)C(=O)N(C)CC(=O)N[C@@H](CCc2ccc(C(F)(F)F)c(OC)c2)C(=O)N2C[C@@H](C)C[C@H]2C(=O)NC2(CCC2)C(=O)N(C)[C@@H](C2CCCC2)C(=O)N1C [PP2024] |  |  | B (a compound having 3 or more and less than 10 is denoted as B) | A (a compound having 10 or more and less than 20 is denoted as A) |  |  |
| 2 | 63.8 |  |  | CCO[C@@H]1C[C@H]2C(=O)NC3(CC(C)(C)C3)C(=O)N(C)[C@@H](C3CCCC3)C(=O)N(C)[C@H](C(=O)N(C)CC)CC(=O)N(C)[C@@H](CC(C)C)C(=O)N[C@@H]([C@@H](C)CC)C(=O)N(C)CC(=O)N(C)[C@H]3C/C=C\CCN(C3=O)[C@@H](Cc3ccc(C(F)F)cc3)C(=O)N(C)CC(=O)N[C@@H](CCc3ccc(C4CC4)c(C)c3)C(=O)N2C1 [PP3156] | A (a compound having 10 or more and less than 20 is denoted as A) | A (a compound having 10 or more and less than 20 is denoted as A) |  |  |  |  |
|  | 19.2 | 0.3 |  | CCO[C@@H]1C[C@H]2C(=O)NC3(CCC3)C(=O)N(C)[C@@H](C3CCCC3)C(=O)N(C)[C@H](C(=O)N(CC)CC)CC(=O)N(C)[C@@H](CC(C)C)C(=O)N[C@@H]([C@@H](C)CC)C(=O)N(C)CC(=O)N(C)[C@H]3C/C=C\CCN(C3=O)[C@@H](Cc3ccc(C)cc3)C(=O)N(C)CC(=O)N[C@@H](CCc3ccc(C(F)(F)F)c(OC)c3)C(=O)N2C1 [PP1887] |  |  |  |  | B (a compound having 3 or more and less than 10 is denoted as B) | A (a compound having 10 or more and less than 20 is denoted as A) |
|  | 13.6 |  | 0.12 | CC[C@H](C)[C@@H]1NC(=O)[C@H](CC(C)C)N(C)C(=O)C[C@@H](C(=O)N2CCOCC2)N(C)C(=O)[C@H](C2CCCC2)N(C)C(=O)C2(CCC2)NC(=O)[C@@H]2CC(F)(F)CN2C(=O)[C@H](CCc2ccc(C(F)(F)F)c(Cl)c2)NC(=O)CN(C)C(=O)[C@H](Cc2ccc(F)cc2)N2CCCCC[C@@H](C2=O)N(C)C(=O)CN(C)C1=O [PP0969] | B (a compound having 3 or more and less than 10 is denoted as B) | B (a compound having 3 or more and less than 10 is denoted as B) |  |  |  |  |
|  | 114 |  | 0.84 | CCO[C@@H]1C[C@H]2C(=O)NC3(CCC3)C(=O)N(C)[C@@H](C3CCCC3)C(=O)N(C)[C@H](C(=O)N3CCOCC3)CC(=O)N(C)[C@@H](Cc3cscn3)C(=O)N[C@@H]([C@@H](C)CC)C(=O)N(C)CC(=O)N(C)[C@H]3CCCCCN(C3=O)[C@@H](Cc3ccc(C(F)(F)F)cc3)C(=O)N(C)CC(=O)N[C@@H](CCc3cc(F)c(C(F)(F)F)c(F)c3)C(=O)N2C1 [PP0855] | B (a compound having 3 or more and less than 10 is denoted as B) | B (a compound having 3 or more and less than 10 is denoted as B) |  |  |  |  |
| 2.2 | 56.6 |  |  | CCCN1C(=O)CN(C)C(=O)[C@@H]2CCN2C(=O)[C@H]([C@@H](C)CC)NC(=O)[C@H](CC(C)C)N(C)C(=O)C[C@@H](C(=O)N2CCOCC2)N(C)C(=O)[C@H](C2CCCC2)N(C)C(=O)C2(CCCC2)NC(=O)[C@@H]2COCCN2C(=O)[C@H](CCc2ccc(C(F)(F)F)c(Cl)c2)NC(=O)CN(C)C(=O)[C@@H]1Cc1ccc(C(F)(F)F)cc1 [PP0313] ([NMeL]I[Aze][Sar][NPrPhe(4-CF3)][Sar][hPhe(3-Cl-4-CF3)][Morpholine(3S-CO)][Ac5c][NMeGly(cPent)][NMeD]-Morpholide; lactam N-11) | C (A compound having a KD ratio of 0.1 or more and less than 3 is denoted as C) | B (a compound having 3 or more and less than 10 is denoted as B) |  |  |  |  |
|  | 60.1 |  | 1.2 | CCO[C@@H]1C[C@H]2C(=O)NC3(CCC3)C(=O)N(C)[C@@H](C(CC)CC)C(=O)N(C)[C@H](C(=O)N3CCOCC3)CC(=O)N(C)[C@@H](CC(C)C)C(=O)N[C@@H]([C@@H](C)CC)C(=O)N(C)CC(=O)N(C)[C@H]3CCCCCN(C3=O)[C@@H](Cc3ccc(C(F)(F)F)cc3)C(=O)N(C)CC(=O)N[C@@H](CCc3cc(F)c(C(F)(F)F)c(F)c3)C(=O)N2C1 [PP0820] | B (a compound having 3 or more and less than 10 is denoted as B) | A (a compound having 10 or more and less than 20 is denoted as A) |  |  |  |  |
| 0.77 | 70.9 |  |  | CCO[C@@H]1C[C@H]2C(=O)NC3(CC(C)(C)C3)C(=O)N(C)[C@@H](C3CCCC3)C(=O)N(C)[C@H](C(=O)N(C)C)CC(=O)N(C)[C@@H]([C@H](C)OC)C(=O)N[C@@H]([C@@H](C)CC)C(=O)N3CCC[C@H]3C(=O)N(C)[C@H]3C/C=C\CCN(C3=O)[C@@H](Cc3ccc(C(F)(F)F)cc3)C(=O)N(C)CC(=O)N[C@@H](CCc3ccc(C(F)(F)F)c(OC)c3)C(=O)N2C1 [PP3179] | A (a compound having 10 or more and less than 20 is denoted as A) | A (a compound having 10 or more and less than 20 is denoted as A) |  |  |  |  |
| 1.8 | 23.5 |  |  | CC[C@H](C)[C@@H]1NC(=O)[C@H](CC(C)C)N(C)C(=O)C[C@@H](C(=O)N2CCOCC2)N(C)C(=O)[C@H](C2CCCC2)N(C)C(=O)C2(CCCC2)NC(=O)[C@@H]2CCCN2C(=O)[C@H](CCc2ccc(C(F)(F)F)c(Cl)c2)NC(=O)CN(C)C(=O)[C@H](Cc2ccc(C(F)(F)F)cc2)N2CCCCC[C@@H](C2=O)N(C)C(=O)CN(C)C1=O [PP0319] | B (a compound having 3 or more and less than 10 is denoted as B) | B (a compound having 3 or more and less than 10 is denoted as B) |  |  |  |  |
|  | 65.7 | 1 |  | CCO[C@@H]1C[C@H]2C(=O)NC3(CCC3)C(=O)N(C)[C@@H](C3CCCC3)C(=O)N(C)[C@H](C(=O)N3CCOCC3)CC(=O)N(C)[C@@H](CC3CCCCC3)C(=O)N[C@@H]([C@@H](C)CC)C(=O)N(C)CC(=O)N(C)[C@H]3CCCCCN(C3=O)[C@@H](Cc3ccc(C(F)(F)F)cc3)C(=O)N(C)CC(=O)N[C@@H](CCc3cc(F)c(C(F)(F)F)c(F)c3)C(=O)N2C1 [PP0686] |  |  | B (a compound having 3 or more and less than 10 is denoted as B) | B (a compound having 3 or more and less than 10 is denoted as B) |  |  |
|  | 8.5 | 0.41 |  | CCC[C@H]1C(=O)N[C@@H]([C@@H](C)CC)C(=O)N(CCC)CC(=O)N(C)[C@H]2C/C=C\CCN(C2=O)[C@@H](Cc2ccc(C)cc2)C(=O)N(C)CC(=O)N[C@@H](CCc2ccc(C(F)(F)F)c(OC)c2)C(=O)N2C[C@H](OCC)C[C@H]2C(=O)NC2(CC(C)(C)C2)C(=O)N(C)[C@@H](C2CCCC2)C(=O)N(C)[C@H](C(=O)N(C)C)CC(=O)N1C [PP2054] |  |  | A (a compound having 10 or more and less than 20 is denoted as A) | A (a compound having 10 or more and less than 20 is denoted as A) |  |  |
